{"source": "paper PMC8609999", "about": "“A Phase I trial of talazoparib in patients with advanced hematologic malignancies” (International Journal of Hematologic Oncology, 2021)", "key": {"[1]": {"test_system": "advanced hematologic malignancies (AML, MDS, CLL, MCL)", "assay": "Anti-leukemic activity (best overall response)", "type": "in vivo, human", "method": "Objective response, duration of objective response, and time to progression or treatment failure were recorded. Response was measured by the following response criteria: the European leukemiaNet for subjects with AML [30], the International Working Group for Prognosis in MDS for subjects with MDS [31, 32], the International Workshop on Chronic Lymphocytic leukemia (iwCLL) for subjects with CLL, and the Revised Response Criteria for MCL [34]."}, "[2]": {"assay": "Urine pharmacokinetics after multiple daily talazoparib dosing", "type": "in vivo, human", "method": "Plasma and urine samples were assayed for talazoparib concentrations by Covance Laboratories Inc., using validated high performance liquid chromatography with tandem mass spectrometry detection methods. The lower limits of quantitation for […] and urine were 5.0 pg/ml and 25.0 pg/ml, respectively. Evaluated PK parameters included maximum concentration (Cmax), minimum concentration (Cmin), time to maximum plasma concentration (Tmax), area under the curve from time 0 to last measurable concentration (AUC0–t), area under the curve from time 0 to 24 h post-dose (AUC0–24), amount of drug excreted into the urine from time 0 to 24 h (Ae0–24), fraction of administered drug excreted in the urine from time 0 to 24 h (Fe0–24), and average renal clearance from time 0 to 24 h (ARC0–24); ARC0–24 was calculated as (Ae0–24/AUC0–24). PK parameters were calculated using Phoenix™ WinNonlin® 6.1.\nSummary statistics for plasma and urine talazoparib concentrations and PK parameters were calculated by grouping subjects in cohorts 1 and 2 together to provide a larger sample size at each dose level."}, "PARP": {"test_system": "PARP", "design": "method as in PMID 28302823, PMID 24356813, PMID 32241924", "conditions": "in vitro; cited from earlier work"}, "[3]": {"test_system": "patients with germline BRCA1/2 mutations and solid tumors", "conditions": "NCT01286987; cited from earlier work"}, "[4]": {"test_system": "germline BRCA1/2-mutated HER2- advanced breast cancer", "design": "method as in PMID 30110579", "conditions": "1 mg once daily; cited from earlier work"}, "[5]": {"test_system": "patients with advanced hematologic malignancies (cohort 1: AML/MDS; cohort 2: CLL/MCL)", "assay": "Dose-limiting toxicity / MTD, Phase I 3 + 3 dose-escalation of once-daily oral talazoparib (NCT01399840)", "type": "in vivo", "conditions": "for Maximum tolerated dose (MTD): oral once daily, 21-day cycles", "method": "This study was an open-label, two-cohort, Phase I, dose-escalation study of once-daily talazoparib monotherapy in patients with advanced hematologic malignancies (ClinicalTrials.gov Identifier: NCT01399840) conducted at seven sites in the US and the UK between July 2011 and November 2013. Enrollment and dose escalation were conducted independently in each cohort of the study. Talazoparib was administered orally, once a day for repeated 21-day cycles under fasting conditions. Each cohort consisted of two stages: dose escalation (stage 1) and dose expansion (stage 2). Dose escalation followed a standard 3 + 3 dose-escalation design, where the first patient in each group was observed from cycle 1 day 1 through cycle 1 day 8 before two to five additional patients were treated in that dose level. […] Planned talazoparib dose levels included 0.1, 0.2, 0.3, 0.45, 0.9, 1.35, and 2.0 mg/day.\nThe primary objective of the study was to establish the MTD of daily oral talazoparib in molecularly unselected patients with AML or MDS (cohort 1) and in patients with CLL or MCL (cohort 2). The MTD was defined as the highest dose level at which no more than one of six patients experienced a DLT. A DLT was defined as any of the following treatment-related toxicities occurring during cycle 1: in cohort 1, hematologic adverse events (AEs) included bone marrow hypoplasia (≤10% cellularity) lasting ≥28 days. Non-hematologic toxicities included any Grade ≥3 AE except for the following: (1) a non-hematologic Grade 3 laboratory AE that is asymptomatic and rapidly reversible (returned to baseline or to Grade ≤1 within 3 days) unless identified as clinically relevant by the investigator; (2) Grade 3 nausea, vomiting, and/or diarrhea responsive to medications within 24 h; (3) Grade 3 tumor lysis syndrome; (4) Grade 3 stomatitis that resolves within 7 days; or (5) Grade 3 fatigue unless ≥2 grade increase from baseline lasting >3 days. Missing ≥4 doses of talazoparib during cycle 1 for treatment-related non-hematologic toxicity was also defined as a DLT. In cohort 2, hematologic AEs included Grade 4 thrombocytopenia persisting for >7 days and/or resulting in Grade ≥2 hemorrhage, or Grade 4 neutropenia lasting >7 days and/or associated with fever (hematologic AEs for patients with bone marrow effacement [i.e., platelet count ≤50 × 10^9/L and neutrophil count <1 × 10^9/L] included >50% decrease in platelet count persisting for >7 days or resulting in Grade ≥2 hemorrhage, or >50% decrease in neutrophil count and/or associated with fever or systemic infection). For non-hematologic AEs, the same criteria used for cohort 1 were used to define DLT.\nPatients experiencing a DLT during cycle 1 could resume talazoparib treatment at the same or reduced dose after recovery to baseline or Grade ≤1 within 21 days of treatment interruption. Patients not experiencing a DLT during cycle 1 could receive additional treatment until disease progression, treatment failure, or relapse. Patients with persisting non-hematologic Grade 1/2 toxicity were dose reduced ∼25%. Dosing was stopped for patients with a Grade 3/4 non-hematologic toxicity and resumed with a 25%–50% dose reduction if toxicity resolved to Grade 0/1 after >7 days, or returned to baseline. Patients with non-hematologic Grade 3 toxicity that resolved to Grade 0/1 in <7 days could resume with ∼25% reduction.\nFor determination of the MTD, only the treated evaluable patients were included. No formal sample size calculations based on statistical power were performed. Descriptive statistics were used to characterize all outcomes."}, "[6]": {"test_system": "patients with advanced hematologic malignancies (cohort 1: AML/MDS; cohort 2: CLL/MCL)", "type": "in vivo, human", "description": "AEs were coded in accordance with The Medical Dictionary for Regulatory Activities, version 16.1. Treatment-emergent AEs (TEAEs) were defined as AEs that were new, increased in frequency, or worsened in severity, after the first talazoparib dose. AEs counted as drug-related had been classified by investigators as possibly or probably related to talazoparib.\nAll analyses in this open-label, dose-finding study were descriptive in nature. Descriptive summaries of continuous variables, including the mean, standard deviation (SD), median, range, and, where appropriate, 95% CI and/or interquartile range, were determined using the Statistical Analysis Software (SAS), version 9.2. Descriptive summaries of categorical variables included the number of patients and percentages. Data were summarized with respect to the dose level at which the patients started treatment. Cohorts were defined as all patients who began treatment at a given dose level."}, "[7]": {"conditions": "1.35 mg/day, multiple daily dosing, urine, n = 2, geometric mean (geometric CV%)"}}, "note": "Several values for one entry are separate records, joined by “and”; a condition that tells them apart may be missing. Identical values can stand only once. Like-named read-outs stand apart in the source and are kept apart here. Marks after values point to notes of the source that are not given here."}
{"molecule": "Cn1ncnc1[C@H]1c2n[nH]c(=O)c3cc(F)cc(c23)N[C@@H]1c1ccc(F)cc1", "note": "[talazoparib]", "values": [{"measurement": "Stable disease (best overall response)", "setting": "[1]; Cohort 1, AML (n = 21)", "value": "9 (42.9) n (%)"}, {"measurement": "Stable disease ≥16 weeks", "setting": "[1]; Cohort 1, AML (n = 21)", "value": "2 (9.5)^‡ n (%)"}, {"measurement": "Stable disease (best overall response)", "setting": "[1]; Cohort 1, All (n = 25)", "value": "13 (52.0) n (%)"}, {"measurement": "Stable disease ≥16 weeks", "setting": "[1]; Cohort 1, All (n = 25)", "value": "5 (20.0) n (%)"}, {"measurement": "Stable disease (best overall response)", "setting": "[1]; Cohort 1, MDS (n = 4)", "value": "4 (100) n (%)"}, {"measurement": "Stable disease ≥16 weeks", "setting": "[1]; Cohort 1, MDS (n = 4)", "value": "3 (75.0)^§ n (%)"}, {"measurement": "Stable disease (best overall response)", "setting": "[1]; Cohort 2, All (n = 8)", "value": "5 (62.5) n (%)"}, {"measurement": "Stable disease ≥16 weeks", "setting": "[1]; Cohort 2, All (n = 8)", "value": "1 (12.5) n (%)"}, {"measurement": "Stable disease (best overall response)", "setting": "[1]; Cohort 2, CLL (n = 4)", "value": "3 (75.0) n (%)"}, {"measurement": "Stable disease ≥16 weeks", "setting": "[1]; Cohort 2, CLL (n = 4)", "value": "0 n (%)"}, {"measurement": "Stable disease (best overall response)", "setting": "[1]; Cohort 2, MCL (n = 4)", "value": "2 (50.0) n (%)"}, {"measurement": "Stable disease ≥16 weeks", "setting": "[1]; Cohort 2, MCL (n = 4)", "value": "1 (25.0) n (%)"}, {"measurement": "Patients with stable disease", "setting": "[1]; both cohorts, N = 33", "value": 54.5, "unit": "%"}, {"measurement": "Stable disease of at least 16 weeks' duration", "setting": "[1]; both cohorts, N = 33", "value": "six"}, {"measurement": "Transfusion independence", "setting": "[1]; one with MDS and one with AML", "value": "two"}, {"measurement": "Ae0–24", "setting": "[2]; [7]", "value": "0.531 (29.8) mg"}, {"measurement": "Fe0–24 (fraction of administered drug excreted in urine)", "setting": "[2]; [7]", "value": "0.393 (29.8)"}, {"measurement": "Major clearance pathway", "setting": "[2]; human, in vivo", "value": "urinary elimination is the major clearance pathway"}, {"measurement": "PARP-trapping activity compared with other PARP inhibitors", "setting": "PARP", "value": "higher PARP-trapping activity"}, {"measurement": "Maximum tolerated dose (MTD)", "setting": "[3]", "value": 1, "unit": "mg once daily"}, {"measurement": "Progression-free survival compared with physician's choice of chemotherapy", "setting": "[4]", "value": "significantly longer progression-free survival"}, {"measurement": "Maximum tolerated dose (MTD)", "setting": "[5]; Cohort 1 (AML/MDS)", "value": "< 2.0 mg/day and 1.35 mg/day"}, {"measurement": "DLT AE: Neutropenic sepsis", "setting": "[5]; Cohort 1, 0.10 mg/day (n = 3)", "value": "0 (0.0) n (%)"}, {"measurement": "DLT AE: Neutropenic sepsis", "setting": "[5]; Cohort 1, 0.20 mg/day (n = 3)", "value": "0 (0.0) n (%)"}, {"measurement": "DLT AE: Neutropenic sepsis", "setting": "[5]; Cohort 1, 0.30 mg/day (n = 5)", "value": "0 (0.0) n (%)"}, {"measurement": "DLT AE: Neutropenic sepsis", "setting": "[5]; Cohort 1, 0.45 mg/day (n = 3)", "value": "0 (0.0) n (%)"}, {"measurement": "DLT AE: Neutropenic sepsis", "setting": "[5]; Cohort 1, 0.90 mg/day (n = 4)", "value": "0 (0.0) n (%)"}, {"measurement": "DLT AE: Neutropenic sepsis", "setting": "[5]; Cohort 1, 1.35 mg/day (n = 3)", "value": "0 (0.0) n (%)"}, {"measurement": "DLT AE: Neutropenic sepsis", "setting": "[5]; Cohort 1, 2.00 mg/day (n = 4)", "value": "1 (25.0)^† n (%)"}, {"measurement": "DLT AE: Neutropenic sepsis", "setting": "[5]; Cohort 1, All (n = 25)", "value": "1 (4.0) n (%)"}, {"measurement": "Maximum tolerated dose (MTD)", "setting": "[5]; Cohort 2 (CLL/MCL)", "value": "< 0.9 mg/day and ~0.9 mg/day"}, {"measurement": "DLT AE: Neutropenic sepsis", "setting": "[5]; Cohort 2, 0.10 mg/day (n = 3)", "value": "0 (0.0) n (%)"}, {"measurement": "DLT AE: Neutropenic sepsis", "setting": "[5]; Cohort 2, 0.90 mg/day (n = 5)", "value": "0 (0.0) n (%)"}, {"measurement": "DLT AE: Neutropenic sepsis", "setting": "[5]; Cohort 2, All (n = 8)", "value": "0 (0.0) n (%)"}, {"measurement": "MTD in patients with hematologic malignancies (approximate range)", "setting": "[5]; monotherapy, once daily, both cohorts", "value": "~1", "unit": "mg"}, {"measurement": "Any AEs of CTCAE Grade of 5 (death)", "setting": "[6]; Cohort 1, 0.10 mg/day (n = 3)", "value": "0 (0.0) n (%)"}, {"measurement": "Any study drug-related AEs of CTCAE Grade 5 (death)", "setting": "[6]; Cohort 1, 0.10 mg/day (n = 3)", "value": "0 (0.0) n (%)"}, {"measurement": "Any AEs of CTCAE Grade of 5 (death)", "setting": "[6]; Cohort 1, 0.20 mg/day (n = 3)", "value": "2 (66.7) n (%)"}, {"measurement": "Any study drug-related AEs of CTCAE Grade 5 (death)", "setting": "[6]; Cohort 1, 0.20 mg/day (n = 3)", "value": "0 (0.0) n (%)"}, {"measurement": "Any AEs of CTCAE Grade of 5 (death)", "setting": "[6]; Cohort 1, 0.30 mg/day (n = 5)", "value": "1 (20.0) n (%)"}, {"measurement": "Any study drug-related AEs of CTCAE Grade 5 (death)", "setting": "[6]; Cohort 1, 0.30 mg/day (n = 5)", "value": "0 (0.0) n (%)"}, {"measurement": "Any AEs of CTCAE Grade of 5 (death)", "setting": "[6]; Cohort 1, 0.45 mg/day (n = 3)", "value": "2 (66.7) n (%)"}]}
